Measured values reported in PubChem BioAssay AID256 (DTP/NCI, 2004).
Inconclusive results and toxic doses are left out. The calls were made as follows: active = survival T/C of 150% or more; inactive = T/C below 125% in these data.

Tested on: CD2F1 mice, L1210 leukemia ip, survival T/C
Experiment: NCI In Vivo Anticancer Drug Screen. Data for tumor model L1210 Leukemia (intraperitoneal) in CD2F1 (CDF1) mice
Conditions: endpoint: mean survival time, higher = longer survival
How it was run: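 Transplantable tumor in mice; compound-treated vs vehicle-treated groups. Read-out = treated/control ratio of the measured endpoint.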

[1] = dose: 100.0 mg/kg/injection, schedule: Q01DX001 (ip), vehicle: saline with Tween-80
[2] = dose: 200.0 mg/kg/injection, schedule: Q01DX001 (ip), vehicle: saline with Tween-80
[3] = dose: 400.0 mg/kg/injection, schedule: Q01DX001 (ip), vehicle: saline with Tween-80
[4] = dose: 50.0 mg/kg/injection, schedule: Q01DX009 (ip), vehicle: saline with Tween-80
[5] = dose: 100.0 mg/kg/injection, schedule: Q01DX009 (ip), vehicle: saline with Tween-80
[6] = dose: 200.0 mg/kg/injection, schedule: Q01DX009 (ip), vehicle: saline with Tween-80
[7] = dose: 100.0 mg/kg/injection, schedule: Q04DX003 (ip), vehicle: saline with Tween-80
[8] = dose: 200.0 mg/kg/injection, schedule: Q04DX003 (ip), vehicle: saline with Tween-80
[9] = dose: 400.0 mg/kg/injection, schedule: Q04DX003 (ip), vehicle: saline with Tween-80
[10] = dose: 400.0 mg/kg/injection, schedule: Q01DX009 (ip), vehicle: saline with Tween-80

Measured: T/C

Cc1nc(N)[nH]c(=O)c1CCCN(c1ccccc1)S(=O)(=O)c1ccc(N)cc1
inactive: [1] 101 % of control | [2] 89 % of control | [3] 89 % of control

COC(=O)C1CCOC1=O (stereo not given)
inactive: dose: 100.0 mg/kg/injection, schedule: Q04DX002 (ip), vehicle: saline 98 % of control | dose: 200.0 mg/kg/injection, schedule: Q04DX002 (ip), vehicle: saline 98 % of control | dose: 400.0 mg/kg/injection, schedule: Q04DX002 (ip), vehicle: saline 102 % of control

CS(=O)(=O)OCC1C(COS(C)(=O)=O)N(S(C)(=O)=O)S(=O)N1S(C)(=O)=O (stereo not given)
inactive: dose: 100.0 mg/kg/injection, schedule: Q01DX001 (ip), vehicle: saline 100 % of control | dose: 100.0 mg/kg/injection, schedule: Q04DX003 (ip), vehicle: saline 111 % of control | dose: 200.0 mg/kg/injection, schedule: Q01DX001 (ip), vehicle: saline 95 % of control | dose: 200.0 mg/kg/injection, schedule: Q04DX003 (ip), vehicle: saline 108 % of control | dose: 400.0 mg/kg/injection, schedule: Q01DX001 (ip), vehicle: saline 94 % of control | dose: 400.0 mg/kg/injection, schedule: Q04DX003 (ip), vehicle: saline 91 % of control

Clc1ccc(CCc2ccc(Cl)cc2)cc1
inactive: [4] 102 % of control | [5] 98 % of control | [6] 102 % of control

O=[N+]([O-])c1ccc(COc2ccc(Cl)cc2)cc1
inactive: [7] 92 % of control | [8] 103 % of control | [9] 94 % of control

C[n+]1c(/C=C\c2cccc([N+](=O)[O-])c2)ccc2ccccc21
inactive: [1] 106 % of control | [5] 87 % of control | [2] 95 % of control | [6] 91 % of control | [3] 107 % of control | [10] 95 % of control

CN(C)N=Nc1cc(Cl)cc(C(N)=O)c1Cl
inactive: dose: 88.0 mg/kg/injection, schedule: Q01DX009 (ip), vehicle: saline with Tween-80 123 % of control | dose: 177.0 mg/kg/injection, schedule: Q01DX009 (ip), vehicle: saline with Tween-80 120 % of control | [10] 96 % of control

Nn1nc2ccccc2n1
inactive: [7] 111 % of control | [8] 117 % of control | [9] 95 % of control

COCCNC1=C(C)C(=O)C2=C(C1=O)[C@H](COC(N)=O)[C@]1(OC)[C@@H]3N[C@@H]3CN21
inactive: dose: 3.0 mg/kg/injection, schedule: Q01DX001 (ip), vehicle: distilled water + Tween-80 114 % of control | dose: 24.0 mg/kg/injection, schedule: Q01DX001 (ip), vehicle: distilled water + Tween-80 123 % of control

CO[C@@]12[C@@H]3N[C@@H]3CN1C1=C(C(=O)C(NCCN3CCOCC3)=C(C)C1=O)[C@@H]2COC(N)=O
inactive: dose: 1.5 mg/kg/injection, schedule: Q01DX001 (ip), vehicle: water 100 % of control | dose: 3.0 mg/kg/injection, schedule: Q01DX001 (ip), vehicle: water 101 % of control | dose: 6.0 mg/kg/injection, schedule: Q01DX001 (ip), vehicle: water 105 % of control | dose: 12.0 mg/kg/injection, schedule: Q01DX001 (ip), vehicle: water 106 % of control | dose: 24.0 mg/kg/injection, schedule: Q01DX001 (ip), vehicle: water 103 % of control

O=C(CNC(=O)Nc1cccc([N+](=O)[O-])c1)N/N=C/c1ccccc1O
inactive: [4] 93 % of control | [5] 86 % of control | [6] 89 % of control

CNc1nc(NC)nc(NC)n1
inactive: dose: 12.5 mg/kg/injection, schedule: Q01DX009 (ip), vehicle: Klucel (hydroxypropylcellulose) (HPC) 95 % of control | dose: 25.0 mg/kg/injection, schedule: Q01DX009 (ip), vehicle: Klucel (hydroxypropylcellulose) (HPC) 97 % of control | dose: 50.0 mg/kg/injection, schedule: Q01DX009 (ip), vehicle: Klucel (hydroxypropylcellulose) (HPC) 97 % of control | dose: 100.0 mg/kg/injection, schedule: Q01DX009 (ip), vehicle: Klucel (hydroxypropylcellulose) (HPC) 100 % of control | dose: 200.0 mg/kg/injection, schedule: Q01DX009 (ip), vehicle: Klucel (hydroxypropylcellulose) (HPC) 103 % of control
